Assay [1] has as its system resistant mutants of KP 16. Briefly: MIC following resistance development. The format is cell-based, Klebsiella. The following applies: KP 16; following resistance development. The procedure:
(§1) General Minimum Inhibitory Concentration (MIC) Protocol
(§2) 1. Grow up cultures of bacterial strains to be tested overnight.
(§3) 2. Dilute down overnight cultures to concentration of 1×10^6 bacteria/ml (OD0.01) in Tryptic soy broth (TSB).
(§4) 3. Add 100 μl of TSB media to column 2-column 12 in 96 well plate (keeping column 1 clear).
(§5) 4. Make up compound to a concentration of 64 μg/ml in water (or alternatively to twice the chosen maximum concentration to be tested).
(§6) 5. Add 100 μl of antibiotic solution to the 1st and 2nd columns.
(§7) 6. Using a multichannel pipette take 100 μl from the 2nd column wells and pipette into 3rd column wells and repeat down the 96 well plate (remembering to include controls i.e. uninfected media and media with no antibiotic).
(§8) 7. To each well (except uninfected control row H) add 100 μl of bacterially infected media at a concentration of 1×10^6/ml.
(§9) 8. This dilutes down the concentration of the antibiotic by half (top dose is therefore 32 μg/ml in column 1) and also gives you a starting bacterial concentration of 5×10^5/ml.
(§10) 9. Wrap plate with parafilm to prevent evaporation.
(§11) 10. Leave at desired temperature (37° C. unless specified elsewhere) for 20 hours.
(§12) 11. Next day check plates for growth and measure optical density (i.e. absorbance) at a wavelength of 600 nm (OD600).
(§13) An example of such a plate is shown in FIG. 1 where column A represents wells that receive the top dose 100 μl; column B represents wells that receive the top dose 100 μl+100 μl TSB; and column C represents wells that receive 100 μl TSB. Row H which is marked by a box labelled D represents a blank where the cells receive no bacteria.
(§14) The MIC of PP-A418 and colistin against the strains used in the time kill analysis of Example 31 following resistance development were measured. The MIC was measured using the general MIC protocol given above. The results are given in Table 14 below where the MIC values of resistant mutants are shown in the brackets.

Assay [2] has as its system resistant mutants of KP 13368. Briefly: MIC following resistance development. The following applies: KP 13368; following resistance development. The format is cell-based, Klebsiella. The procedure: as §1, §2, §3, §4, §5, §6, §7, §8, §9, §10, §11, §12, §13, §14
Assay [3] concerns resistant mutants of KP 13438. Briefly: MIC following resistance development. The format is cell-based, Klebsiella. To be noted: KP 13438; following resistance development. The procedure:
as §1, §2, §3, §4, §5, §6, §7, §8, §9, §10, §11, §12, §13, §14

Another assay has as its system K. pneumonia NCTC 13439. Briefly: General MIC protocol, Gram negative. The format is cell-based. The following applies: K. pneumonia NCTC 13439. The procedure: as §1, §2, §3, §4, §5, §6, §7, §8, §9, §10, §11, §12, §13
The next assay concerns K. pneumonia NCTC 13438. Briefly: General MIC protocol, Gram negative. The assay is classed as cell-based. To be noted: K. pneumonia NCTC 13438. The procedure:
as §1, §2, §3, §4, §5, §6, §7, §8, §9, §10, §11, §12, §13

A further assay deals with K. pneumonia NCTC 13368. As to the kind of experiment: General MIC protocol, Gram negative. The assay is classed as cell-based. The following applies: KP NCTC 13368. The method, then:
as §1, §2, §3, §4, §5, §6, §7, §8, §9, §10, §11, §12, §13

A further assay deals with K. pneumonia MGH 78578. Briefly: General MIC protocol, Gram negative. The format is cell-based. The following applies: K. pneumonia MGH 78578. The method, then:
as §1, §2, §3, §4, §5, §6, §7, §8, §9, §10, §11, §12, §13

For the next assay, the system named is K. pneumonia KP16. Briefly: General MIC protocol, Gram negative. The format is cell-based. The following applies: K. pneumonia KP16. The method, then:
as §1, §2, §3, §4, §5, §6, §7, §8, §9, §10, §11, §12, §13

The next assay deals with K. pneumonia NCTC 13443. Briefly: General MIC protocol, Gram negative. The format is cell-based. The following applies: K. pneumonia NCTC 13443. The procedure: as §1, §2, §3, §4, §5, §6, §7, §8, §9, §10, §11, §12, §13
For a further assay, the system named is K. pneumonia NCTC 51851. As to the kind of experiment: General MIC protocol, Gram negative. The format is cell-based. The following applies: K. pneumonia NCTC 51851. The method, then:
as §1, §2, §3, §4, §5, §6, §7, §8, §9, §10, §11, §12, §13

The next assay concerns Klebsiella KP 342. Briefly: General MIC protocol, Gram negative. The format is cell-based. To be noted: KP342. The procedure: as §1, §2, §3, §4, §5, §6, §7, §8, §9, §10, §11, §12, §13
The minimum inhibitory concentration (MIC) was measured using the general MIC protocol given above.

The test system of a further assay is Psueudomonas GH12. As to the kind of experiment: General MIC protocol, Gram negative. The format is cell-based. The following applies: Pseudomonas. The procedure: as §1, §2, §3, §4, §5, §6, §7, §8, §9, §10, §11, §12, §13
The activity of the compound designated PP-A148 was tested against an extended panel of Klebsiella and Pseudomonas Gram-negative bacterial strains that have proven drug resistant difficult to treat. […] The minimum inhibitory concentration (MIC) was measured using the general MIC protocol given above.

The test system of another assay is P. aeruginosa PA01. As to the kind of experiment: General MIC protocol, Gram negative. The format is cell-based. To be noted: Pseudomonas aeruginosa, PA01; read-out: MIC. The method, then:
as §1, §2, §3, §4, §5, §6, §7, §8, §9, §10, §11, §12, §13

Here are results for two molecules from patent publication US10640507B2, “PBD antibacterial agents” (KING'S COLLEGE LONDON, priority 2015, dated 2020).

Values after ≈ are worked out from the molar mass of the structure shown. Where two headings read alike, the source gives them in different places.

For colistin [reference compound], the “MIC of resistant mutants (in brackets)” value in assay [1] is “(64-128) μg/ml”; in assay [2], “(32-64) μg/ml”; in [3], “(64-128) μg/ml”. For the same molecule, the MIC against K. pneumonia NCTC 13439 was 4 µg/mL; against K. pneumonia NCTC 13438, 2 µg/mL; in the assay on K. pneumonia NCTC 13368, 4 µg/mL; in the assay on K. pneumonia MGH 78578, 8 µg/mL; in the assay on K. pneumonia KP16 it was 2 to 4 µg/mL; in the assay on K. pneumonia KP16 (listed as Collistin), 1 µg/mL. For the same molecule, the minimum inhibitory concentration (MIC) came to 2 µg/mL with K. pneumonia NCTC 13443, 64 µg/mL against K. pneumonia NCTC 51851 and 4 µg/mL in the assay on Klebsiella KP 342 (Klebsiella).
With `C[C@H]1COc2c(N3CCN(C)CC3)c(F)cc3c(=O)c(C(=O)O)cn1c23` [Levofloxacin, levofloxacin], the MIC with Psueudomonas GH12 is more than 16 µg/mL; in the assay on P. aeruginosa PA01, 4 µg/mL (≈ 11.1 µM); in the assay with K. pneumonia NCTC 13439 (Klebsiella pneumoniae, NCTC13439, read-out: MIC), 16 µg/mL (≈ 44.3 µM); in the assay on K. pneumonia NCTC 13438 (Klebsiella pneumoniae, NCTC13438, read-out: MIC) it was more than 16 µg/mL; with K. pneumonia MGH 78578 (Klebsiella pneumoniae, MGH78578, read-out: MIC), 1 µg/mL (≈ 2.77 µM); in the assay with K. pneumonia KP16 (Klebsiella pneumoniae, read-out: MIC) it was 8 to 16 µg/mL (≈ 22.1 to 44.3 µM). The minimal inhibitory concentration (MIC) was more than 16 µg/mL in the assay with K. pneumonia NCTC 13443 (Klebsiella pneumoniae, NCTC13443, read-out: MIC); more than 16 µg/mL with K. pneumonia NCTC 51851 (Klebsiella pneumoniae, NCTC51851, read-out: MIC); 0.5 to 1 µg/mL (≈ 1.38 to 2.77 µM) in the assay with Klebsiella KP 342 (Klebsiella KP 342, read-out: MIC).
